Results as given in patent US10060933B2, “Methods for diagnosis and treatment of amyotrophic lateral sclerosis based on an increased level of interaction between TDP-43 polypeptide and NF-KB P65 polypeptide” (UNIVERSITE LAVAL, priority 2011, dated 2018).

Assays:
[1] = tested on: NF-κB (phospho-p65^Ser536); assay: Western blot of phospho-p65^Ser536 in challenged neuronal cells; type: cell-based, mouse; conditions: glutamate and conditioned media challenged neuronal cells; WA
Description: […] is known to modulate p53-p38MAPK dependent apoptosis in neurons, when treated with DNA damage inducing chemicals like camptothecin^34, glutamate excitotoxicity^35 or general bystander mediated killing of neurons by microglia^14. To assess the potential contribution of NF-κB to the death of TDP-43 overexpressing neurons exposed to toxic injury, we prepared cultures of primary cortical neurons and microglia from transgenic mice overexpressing TDP-43^wt or TDP-43 mutants. […] The LDH cytotoxicity was determined 24 hrs later (FIG. 14A). […] We then incubated cortical neurons with the conditioned media from primary microglial culture, which were challenged with LPS at a concentration of 50 ng/ml of media. […] As WA might exert multiple pharmacological actions, we tested a more specific molecular approach for inhibiting NF-κB. Since, activation of NF-κB requires its dissociation from the inhibitory molecule, IκB, we expressed a stable mutant super-repressive form of IκB-α (Ser 32/Ser36-to-alanine mutant; IκB^SR) and evaluated its effects on neuronal death. Cultured cortical neurons from TDP-43 transgenic and non-transgenic mice were transfected with a plasmid construct, expressing IκB^SR, and exposed to either 10 μM glutamate for 30 min or incubated in conditioned media from LPS-stimulated microglia of same genotype. […]

GFAP promoter activity = assay: In vivo bioluminescence imaging of GFAP-luc in spinal cord; set-up: species or system mouse; conditions: for GFAP promoter activity / GFAP-luc expression (bioluminescence) in spinal cord: GFAP-luc/TDP-43^Wt mice, 3 mg/kg i.p. twice a week for 10 weeks from 30 weeks, 36 and 40 weeks, vs untreated, 3 mg/kg
Description: To study the in vivo effect of NF-κB inhibition on disease progression, we injected TDP-43^wt; GFAP-luc double transgenic mice with 3 mg/kg body weight of WA twice a week for 10-weeks starting at 30-weeks. […] We used TDP-43^wt; GFAP-luc double transgenic mice because the reporter luciferase (luc) allowed the longitudinal and non-invasive biophotonic imaging with CCD camera of the GFAP promoter activity which is a target of activated NF-κB. To analyse the spatial and temporal dynamics of astrocytes activation/GFAP induction in TDP-43 mouse model, we performed series of live imaging experiments. […] The downregulation of GFAP promoter activity was further confirmed in these mice using GFAP immunofluorescence of spinal cord sections of TDP-43^Wt mice (both drug-treated and untreated) (FIG. 8F). […] Down-regulation of GFAP along with reduction in active p65 levels in withaferin treated mice prompted us to analyse behavioural changes in these mice. […] The withaferin treated mice also had 40% reduction in the number of partially denervated neuromuscular junction (NMJ) (FIGS. 8E&G).
Age matched control non-transgenic animals (n=10) and in TDP-43^Wt (n=10) littermates were injected twice a week with 0.9% saline intra-peritoneally. All the behavioral and imaging experiments were conducted in a double blind manner as such the experimenter had no knowledge of the drug treatment or the genotype of animals.
As previously described^31, 32, the images were gathered using IVIS® 200 Imaging System (CaliperLSXenogen, Alameda, Calif., USA). Twenty-five minutes prior to imaging session, the mice received intraperitoneal (i.p.) injection of the luciferase substrate D-luciferine (150 mg/kg—for mice between 20 and 25 g, […] of a solution of 20 mg/ml of D-luciferine dissolved in 0.9% saline was injected) (CaliperLS-Xenogen).

neuromuscular junctions = assay: Neuromuscular junction staining and count; type: in vivo, mouse
Description: For monitoring the neuromuscular junctions, 25 mm thick muscle sections were incubated for 1 h in 0.1 M glycine in PBS for 2 h at RT and then stained with Alexa Fluor 594-conjugated α-bungarotoxin (1:2000, Molecular Probes/Invitrogen detection technologies, Carlsbad, Calif., USA) diluted in 3% BSA in PBS for 3 h at RT. After washing in PBS, the muscle sections were blocked in 3% BSA, 10% goat serum and 0.5% Triton X-100 in PBS overnight at 48° C. The next day, the sections were incubated with mouse antineurofilament antibody 160 K (1:2000, Temecula, Calif., USA) and mouse anti-synaptophysin (Dako, Mississauga, ON, Canada) in the same blocking solution overnight at 48° C. After washing for 5 h, muscle sections were incubated with goat anti-mouse Alexa Fluor 488-conjugated secondary antibody (Probes/Invitrogen detection technologies, Carlsbad, Calif., USA) diluted 1:500 in blocking buffer for 3 h at RT. Three hundred neuromuscular junctions were counted per animal sample, discriminating both innervated and denervated junctions as described above. […]

SMILES: CC1=C(CO)C(=O)O[C@@H]([C@@H](C)[C@H]2CC[C@H]3[C@@H]4C[C@H]5O[C@]56[C@@H](O)C=CC(=O)[C@]6(C)[C@H]4CC[C@]23C)C1 [Withaferin A]
- levels of phospho-p65^Ser536 (inhibition of NF-κB) [1]: reduced levels
- GFAP promoter activity / GFAP-luc expression (bioluminescence) in spinal cord (GFAP promoter activity): Significant reduction
- GFAP promoter activity / GFAP-luc expression (bioluminescence) in spinal cord (GFAP promoter activity; listed as WA): progressive reduction in GFAP-luc expression
- GFAP luciferase activity after cessation of the drug treatment (GFAP promoter activity; withaferin treated TDP-43 transgenic mice after cessation of treatment): increase in GFAP luciferase activity
- reduction in the number of partially denervated neuromuscular junction (NMJ) (neuromuscular junctions; withaferin treated TDP-43^Wt mice vs untreated): 40%
- number of partially denervated muscle (NMJ frequency) (neuromuscular junctions; withaferin treated TDP-43^Wt mice, age-matched untreated 15±5%): 9±4%
